In patent EP0437790B1, “Antithrombotic compounds” (MERRELL DOW PHARMACEUTICALS INC., priority 1989, dated 1991):

Experiments:
[1] = biological target: T1, 5HT₂ receptor (Rattus norvegicus, UniProt P14842); assay: [³H] spiroperidol binding test; settings: decrease in binding of [³H] spiroperidol to 5HT₂ receptors; read-out: IC₅₀
T1 construct: from tissue; host or cells: Brain membranes (rat frontal cortex)
Text: As noted above, the compounds are also serotonin 5HT₂ antagonists. […] In this test, 5HT₂ receptors are exposed to both [³H] spiroperidol, (a substance known to have a specific affinity for the receptor) and the test compound. The extent to which there is a decrease in binding of the [³H] spiroperidol to the receptor is indicative of the affinity of the test compound for the 5HT₂ receptor.
1-(4-Fluorophenyl)-2-[4-[(4-methanesulfonamidophenyl)carbonyl]-1-piperidinyl]-ethanone (Compound #1) and 1-(4-fluorophenyl)-2-[4-[(4-acetamidophenyl)carbonyl]-1-piperidinyl]-ethanone (Compound #2) were tested in this procedure. For comparative purposes, 1-(3-pyridyl)-2-[4-[(4-methanesulfonamidophenyl)carbonyl]-1-piperidinyl]-ethanone (Compound #3) was also tested.

[2] = system: canine; assay: canine model of cyclic coronary blood flow reduction (Folts); format: in vivo; settings: Canis lupus familiaris, iv, cyclic flow reduction of the left anterior descending coronary artery, read-out: DOSAGE TO PREVENT CFR
Text: This procedure is well known in the art and has been described by John D. Folts, Edward B. Crowell Jr. and George G. Rowe, Circulation Vol 54, pages 365-370 (1976).
In Folts's model, the left anterior descending coronary artery of a canine is surgically isolated and the endothelial lining of this artery is purposefully damaged by squeezing the vessel in order to insure that the platelets will have the opportunity to come in contact with the collagen underlying the endothelial lining. This initiates the process of thrombus formation which was described above. An electronic flow probe is then placed on the artery so that blood flow through this vessel can be measured. A constrictor is then placed around the artery to produce a critical stenosis. The stenosis is said to be critical because the degree of stenosis is adjusted to abolish the hyperemic response following a 15 second occlusion of the artery. Shortly after producing the critical stenosis, blood flow through this segment of coronary artery will slowly decrease to near zero followed by a sudden return to control levels. The slow decrease in blood flow is caused by the formation of a platelet thrombus which occludes the artery. The sudden return of blood flow is due to dislodgement of the thrombus and/or its resulting conversion into an emboli.
This model can be utilized to test compounds for the ability to inhibit platelet aggregation and therefore prevent the formation of thrombi.
1-(4-Fluorophenyl)-2-[4-[(4-methanesulfonamidophenyl)carbonyl]-1-piperidinyl]-ethanone (Compound #1) and 1-(4-fluorophenyl)-2-[4-[(4-acetamidophenyl)carbonyl]-1-piperidinyl]-ethanone (Compound #2) were tested in this model. For comparative purposes, 1-(3-pyridyl)-2-[4-[(4-methanesulfonamidophenyl)carbonyl]-1-piperidinyl]-ethanone (Compound #3) was also tested in this model. This compound was prepared and described in Example 35 of European Patent Application 0 235 752, supra.

[3] = system: 5HT₂ receptor; assay: 5-DMT head twitch test; format: in vivo; settings: ip; mice; head twitch induced by 5-methoxy-N,N-dimethyltryptamine
Experimental: Psychopharmacol., Vol. 3, pages 89-92, (1979). The administration of 5-methoxy-N,N-dimethyltryptamine (DMT) to mice typically produces a characteristic head twitch in the mice. In this test, the mice are administered 5-DMT and a test compound. An absence of head twitches in the mice is considered to be predictive of the ability of the test compound to antagonize the 5HT₂ receptor in vivo.

T1 sequence (P14842 whole entry): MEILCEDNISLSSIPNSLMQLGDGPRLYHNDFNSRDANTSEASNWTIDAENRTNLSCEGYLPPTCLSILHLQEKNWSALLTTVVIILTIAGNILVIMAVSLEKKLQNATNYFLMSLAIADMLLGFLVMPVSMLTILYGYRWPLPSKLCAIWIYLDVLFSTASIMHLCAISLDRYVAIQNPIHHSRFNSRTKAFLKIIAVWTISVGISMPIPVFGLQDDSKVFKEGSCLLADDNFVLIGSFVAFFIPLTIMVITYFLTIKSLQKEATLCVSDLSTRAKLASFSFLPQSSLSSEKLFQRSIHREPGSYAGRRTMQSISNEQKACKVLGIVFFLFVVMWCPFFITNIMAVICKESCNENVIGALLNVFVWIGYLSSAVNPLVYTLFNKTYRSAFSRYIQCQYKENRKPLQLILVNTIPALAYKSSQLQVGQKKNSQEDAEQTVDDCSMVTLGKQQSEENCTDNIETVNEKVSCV

| SMILES | IC50 [1] | minimal effective dose [2] | ED₅₀ FOR ABOLITION OF HEAD TWITCH [3] |
| --- | --- | --- | --- |
| CS(=O)(=O)Nc1ccc(C(=O)C2CCN(CC(=O)c3cccnc3)CC2)cc1 [Compound #3, 1-(3-pyridyl)-2-[4-[(4-methanesulfonamidophenyl)carbonyl]-1-piperidinyl]-ethanone, reference compound] | > 5000 nM | > 0.1 mg/kg | > 200 mg/kg |
| CC(=O)Nc1ccc(C(=O)C2CCN(CC(=O)c3ccc(F)cc3)CC2)cc1 [Compound #2, 1-(4-fluorophenyl)-2-[4-[(4-acetamidophenyl)carbonyl]-1-piperidinyl]-ethanone] | 20 nM | 0.001 mg/kg | 0.051 mg/kg |
| CS(=O)(=O)Nc1ccc(C(=O)C2CCN(CC(=O)c3ccc(F)cc3)CC2)cc1 [Compound #1, 1-(4-Fluorophenyl)-2-[4-[(4-methanesulfonamidophenyl)carbonyl]-1-piperidinyl]-ethanone] | 78 nM | 0.001 mg/kg | 0.034 mg/kg |
